Reference: PubChem BioAssay AID463182 (University of Pittsburgh Molecular Library Screening Center, 2010)
Activity calls are given as the source filed them. The rule behind the calls is not given here.

Molecular target: Furin (Homo sapiens) (UniProt P09958)
Test: furin inhibitor potency, dose response, biochemical, fluorescence intensity, IC50 (AID 463182)
Conditions: purified furin, fluorogenic peptide substrate cleavage

Sequence of Furin (Homo sapiens) (P09958 108-714 limits assumed): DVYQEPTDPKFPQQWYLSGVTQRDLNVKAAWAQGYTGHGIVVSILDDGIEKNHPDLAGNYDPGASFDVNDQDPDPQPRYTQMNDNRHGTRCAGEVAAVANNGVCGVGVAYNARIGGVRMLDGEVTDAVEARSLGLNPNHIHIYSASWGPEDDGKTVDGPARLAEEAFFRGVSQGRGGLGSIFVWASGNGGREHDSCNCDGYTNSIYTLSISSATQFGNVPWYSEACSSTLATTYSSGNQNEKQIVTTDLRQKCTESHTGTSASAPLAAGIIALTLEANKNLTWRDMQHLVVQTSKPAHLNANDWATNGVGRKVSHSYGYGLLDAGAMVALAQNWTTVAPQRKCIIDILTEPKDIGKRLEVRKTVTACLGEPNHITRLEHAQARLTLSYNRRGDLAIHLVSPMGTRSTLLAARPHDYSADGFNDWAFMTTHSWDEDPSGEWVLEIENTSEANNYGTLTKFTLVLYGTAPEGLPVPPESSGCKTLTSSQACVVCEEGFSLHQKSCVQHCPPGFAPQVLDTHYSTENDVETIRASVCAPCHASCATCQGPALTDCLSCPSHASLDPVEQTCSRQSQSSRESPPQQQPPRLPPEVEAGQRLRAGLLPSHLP

IC50, inactive:
Cc1cccc(/N=C/C2=C(O)CC(C)(C)CC2=O)n1 > 50 µM
CC1(C)CC(=O)C(/C=N/n2cnc3ccccc3c2=O)=C(O)C1 > 50 µM
CC1(C)CC(=O)C(C=Nc2cccnc2)=C(O)C1 > 50 µM
